# Experimental data taken from patent US7977369B2, “Medical compositions for intravesical treatment of bladder cancer” (Spectrum Pharmaceuticals, Inc., priority 2001, dated 2011).
# Like-named read-outs stand apart in the source and are kept apart here.
# Tests used:
# [1] = test system: A2780; test: Chemosensitivity, one hour drug exposure, MTT assay, monolayer; format: cell-based, human
# Source text: (§1) Cell culture and chemosensitivity studies. […] H460 (human NSCLC) cell line was obtained from the American Type Culture Collection (ATCC). HT-29 (human colon carcinoma), RT112/83 (human bladder carcinoma epithelial), EJ138 (human bladder carcinoma) and T24/83 (human bladder transitional cell carcinoma) cell lines were obtained from the European Collection of Animal Cell Cultures (ECACC). A2780 (human ovarian carcinoma) and BE (human colon carcinoma) cells were gifts from Dr T Ward (Paterson Institute, Manchester, UK). All cell lines were maintained as monolayer cultures in RPNII 1640 culture medium supplemented with fetal calf serum (10%), sodium pyruvate (2 mM), L-glutamine (2 mM), penicillin/streptomycin (50 IU/ml/50 jug/ml) and buffered with HEPES (25 mK). All cell culture materials were purchased from Gibco BRL (Paisley, UK). […] Calibration curves were conducted over a broad range of pH values in culture medium (pH 3.5 to 11) and the stability of the pH conditions monitored over a one hour incubation period at 37° C.
# [2] = test system: BE; test: as above; format: cell-based, human
# Source text: as §1
# [3] = test system: EJ138; test: as above; format: cell-based, human
# Source text: as §1
# [4] = test system: H460; test: as above; format: cell-based, human
# Source text: as §1
# [5] = test system: HT-29; test: as above; format: cell-based, human
# Source text: as §1
# [6] = test system: RT112; test: as above; format: cell-based, human
# Source text: as §1
# [7] = test system: T24/83; test: as above; format: cell-based, human
# Source text: as §1
# [8] = test system: H460 cells; test: Response of H460 cells to EO9 in the presence or absence of FAA (2 mM); format: cell-based, human; conditions: for IC50: Homo sapiens, NCI-H460, H460 cells
# Protocol: Briefly, H460 cells (NQO1 rich) were plated into 96 well plates at a density of 2×10^3 cells per well. Following an overnight incubation at 37° C., medium was replaced with fresh medium (pH 7.4) containing a non-toxic concentration of FAA (2 mM) and incubated for one hour at 37° C. Medium was then replaced with fresh medium containing EO9 (range of drug concentrations) and FAA (2 mM) at either pHe 7.4 or 6.0. Following a further one hour incubation at 37° C., cells were washed twice with HBSS and incubated at 37° C. in growth medium for five days. Chemosensitivity was determined by the NM assay as described above and results were expressed in terms of IC50 values, selectivity ratios (IC50 at pHe 7.4/IC50 at pHe 6.0) and protection ratios (ICSO FAA/EO9 combinations/IC50 for EO9 alone).
# [9] = test system: HT-29 multicell spheroids; test: Chemosensitivity of HT-29 multicell spheroids; format: cell-based, human; conditions: for IC50: Homo sapiens, HT-29, 1 h, spheroids
# Protocol: HT-29 multicell spheroids were prepared by seeding 5×10^5 cells into T25 flasks which had been based coated with agar (1% w/v) and incubated for 24 h at 37° C. Immature spheroids were then transferred to a spinner flask (Techne) containing 250 ml of RPMI 1640 growth medium and spheroids were kept in suspension by stirring at 50 rpm. When spheroids reached a diameter of approximately 500 Am, they were harvested for chemosensitivity studies. Multicell spheroids were exposed to a range of EO9 concentrations at pHe 6.0 and 7.4 for one hour at 37° C. Following drug incubation, spheroids were washed twice in HBSS prior to dissagregation into single cells using trypsin EDTA. Disaggregated spheroids were then washed in HBSS and then plated into 96 well plates (1×10^3 cells per well) and incubated at 37° C. for four days. Chemosensitivity was assessed using the NM assay as described elsewhere (Phillips et al, 1992).
# [10] = target: T1, recombinant human NQO1 (Homo sapiens, UniProt P15559); test: Substrate specificity: reduction of EO9 by NQO1, cytochrome c reporter; format: biochemical
# T1 construct: made in house; host or cells: E. coli (pKK233-2 plasmid, IPTG induction)
# Protocol: Substrate specificity. The influence of acidic pHe on substrate specificity for purified human NQ01 was determined as described previously (Phillips 1996, Walton et al, 1991). NQ01 mediated reduction of the quinone to the hydroquinone species is difficult to detect by conventional assays thereby necessitating the use of a reporter signal generating step. In this assay, the hydroquinone acts as an intermediate electron acceptor which subsequently reduces cytochrome c which can readily be detected spectrophotometrically. Recombinant human NQ01 was derived from E. coli transformed with the pKK233-2 expression plasmid containing the full length cDNA sequence for human NQ01 isolated from the (Beall et al, 1994). Following IPTG induction, NQO1 was purified by cybacron blue affinity chromatography, details of which are described elsewhere (Phillips, 1996). […] Reduction of EO9 by recombinant human NQO1 was determined at pH 6.0 and 7.4 by measuring the rate of reduction of cytochrome c was measured at 550 nm on a Beckman DU 650 spectrophotometer according to previously published methods (Phillips, 1996).
# [11] = in humans; cited from earlier work
# [12] = phase I clinical trials; cited from earlier work
# [13] = test system: NSCLC, gastric, breast, pancreatic and colon cancers; conditions: phase II trials; cited from earlier work
# [14] = test system: NQ01 rich and deficient tumors; conditions: intratumoural administration; cited from earlier work
# [15] = Stability of EO9 at acidic pH; conditions: buffer
# [16] = Solubility of EO9 in formulation vehicle and water
# [17] = test system: histocultures; conditions: cited from earlier work
# T1 sequence (P15559 whole entry): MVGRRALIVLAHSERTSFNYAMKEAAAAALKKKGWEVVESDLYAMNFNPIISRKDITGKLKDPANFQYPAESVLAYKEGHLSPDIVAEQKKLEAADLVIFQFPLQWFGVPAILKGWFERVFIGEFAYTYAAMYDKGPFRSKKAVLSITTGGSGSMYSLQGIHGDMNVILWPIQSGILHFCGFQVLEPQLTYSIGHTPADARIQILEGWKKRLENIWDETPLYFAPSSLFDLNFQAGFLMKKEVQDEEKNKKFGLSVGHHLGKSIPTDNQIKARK
smiles,measurement,setting,value
"Cn1c(/C=C/CO)c(CO)c2c1C(=O)C=C(N1CC1)C2=O [EO9, 5-(1-aziridinyl)-3-(hydroxymethyl)-2-[(E)-3-hydroxyprop-1-enyl]-1-methyl-1H-indole-4,7-dione]",SR (selectivity ratio) = IC50 at pH 7.4/IC50 at pH 6.0,[1]; A2780,3.92
same,IC50,"[1]; Homo sapiens, A2780, 1 h, read-out: IC50 pHe 6.0",51 ± 14 nM
same,IC50,"[1]; Homo sapiens, A2780, 1 h, read-out: IC50 pHe 7.4",200 ± 50 nM
same,SR (selectivity ratio) = IC50 at pH 7.4/IC50 at pH 6.0,[2]; BE,4.07
same,IC50,"[2]; Homo sapiens, 1 h, read-out: IC50 pHe 6.0",1300 ± 75 nM
same,IC50,"[2]; Homo sapiens, 1 h, read-out: IC50 pHe 7.4",5300 ± 169 nM
same,SR (selectivity ratio) = IC50 at pH 7.4/IC50 at pH 6.0,[3]; EJ138,7.94
same,IC50,"[3]; Homo sapiens, EJ138, 1 h, read-out: IC50 pHe 6.0",39 ± 7 nM
same,IC50,"[3]; Homo sapiens, EJ138, 1 h, read-out: IC50 pHe 7.4",310 ± 95 nM
same,SR (selectivity ratio) = IC50 at pH 7.4/IC50 at pH 6.0,[4]; H460,6.31
same,IC50,"[4]; Homo sapiens, NCI-H460, 1 h, read-out: IC50 pHe 6.0",9.5 ± 2 nM
same,IC50,"[4]; Homo sapiens, NCI-H460, 1 h, read-out: IC50 pHe 7.4",60 ± 10 nM
same,SR (selectivity ratio) = IC50 at pH 7.4/IC50 at pH 6.0,[5]; HT-29,4.13
same,IC50,"[5]; Homo sapiens, HT-29, 1 h, read-out: IC50 pHe 6.0",29 ± 10 nM
same,IC50,"[5]; Homo sapiens, HT-29, 1 h, read-out: IC50 pHe 7.4",120 ± 53 nM
same,IC50,"[6]; Homo sapiens, RT-112, 1 h, read-out: IC50 pHe 6.0",61 ± 13 nM
same,IC50,"[6]; Homo sapiens, RT-112, 1 h, read-out: IC50 pHe 7.4",1050 ± 75 nM
same,SR (selectivity ratio) = IC50 at pH 7.4/IC50 at pH 6.0,[6]; RT112,17.21
same,IC50,"[7]; Homo sapiens, T24/83, 1 h, read-out: IC50 pHe 6.0",60 ± 18 nM
same,IC50,"[7]; Homo sapiens, T24/83, 1 h, read-out: IC50 pHe 7.4",290 ± 65 nM
same,SR (selectivity ratio) = IC50 at pH 7.4/IC50 at pH 6.0,[7]; T24/83,4.83
same,"SR = Selectivity Ratio, IC50 at pHe 7.4 divided by IC50 at pHe 6.0","[8]; H460 cells, with or without FAA 2 mM",6.31
same,IC50,"[8]; pHe 6.0, with or without FAA 2 mM",9.5 ± 2.6 nM
same,IC50,"[8]; pHe 7.4, with or without FAA 2 mM",60 ± 8.1 nM
same,ratio of IC50 values for spheroids to monolayers,"[9]; HT-29, pHe 6.0",341
same,ratio of IC50 values for spheroids to monolayers,"[9]; HT-29, pHe 7.4",202
same,IC50,"[9]; pHe 6.0, one hour exposure",9890 ± 890 nM
same,IC50,"[9]; pHe 7.4, one hour exposure",24200 ± 3290 nM
same,cells killed in spheroids,[9]; at higher doses,> 90%
same,rate of reduction of EO9 by purified human NQO1,[10]; pH 6.0,21.30±1.50 nmol cytochrome c reduced/min/mg protein
same,"specific activity, cytochrome c reduced/min/mg protein",[10]; pH 6.0,21.30±1.5 pmol cytochrome c reduced/min/mg protein
same,rate of reduction of EO9 by purified human NQO1,[10]; pH 7.4,21.10±2.30 nmol cytochrome c reduced/min/mg protein
same,"specific activity, cytochrome c reduced/min/mg protein",[10]; pH 7.4,21.10±2.3 pmol cytochrome c reduced/min/mg protein
same,plasma elimination half-life,[11],10 min
same,clinical response,[12],three partial remissions
same,clinical activity,[13],no activity
same,tumor growth delay,[14],significant growth delays
same,half-life,[15]; pH 5.5,37 min
same,half-life,[15]; pH 6,150 min
same,solubility,"[16]; tert-butanol formulation vehicle, aqueous with cosolvent or surfactant or cyclodextrin",≥ 9500 µg/mL
same,solubility,[16]; water,~200 µg/mL
"CO[C@@]12[C@H](COC(N)=O)C3=C(C(=O)C(C)=C(N)C3=O)N1C[C@@H]1N[C@@H]12 [MMC, Mitomycin C, reference compound]",IC50,"[1]; A2780, pHe 6.0, one hour exposure, read-out: IC50 pHe 6.0",1400 ± 130 nM
same,IC50,"[1]; A2780, pHe 7.4, one hour exposure, read-out: IC50 pHe 7.4",2400 ± 340 nM
same,IC50,"[2]; BE, pHe 6.0, one hour exposure, read-out: IC50 pHe 6.0",4400 ± 215 nM
same,IC50,"[2]; BE, pHe 7.4, one hour exposure, read-out: IC50 pHe 7.4",7000 ± 192 nM
same,IC50,"[3]; EJ138, pHe 6.0, one hour exposure, read-out: IC50 pHe 6.0",1400 ± 250 nM
same,IC50,"[3]; EJ138, pHe 7.4, one hour exposure, read-out: IC50 pHe 7.4",1600 ± 200 nM
same,IC50,"[4]; H460, pHe 6.0, one hour exposure, read-out: IC50 pHe 6.0",220 ± 130 nM
same,IC50,"[4]; H460, pHe 7.4, one hour exposure, read-out: IC50 pHe 7.4",900 ± 200 nM
same,IC50,"[5]; HT-29, pHe 6.0, one hour exposure, read-out: IC50 pHe 6.0",500 ± 240 nM
same,IC50,"[5]; HT-29, pHe 7.4, one hour exposure, read-out: IC50 pHe 7.4",1050 ± 210 nM
same,IC50,"[6]; RT112, pHe 6.0, one hour exposure, read-out: IC50 pHe 6.0",2000 ± 500 nM
same,IC50,"[6]; RT112, pHe 7.4, one hour exposure, read-out: IC50 pHe 7.4",3350 ± 250 nM
same,IC50,"[7]; T24/83, pHe 6.0, one hour exposure, read-out: IC50 pHe 6.0",2100 ± 800 nM
same,IC50,"[7]; T24/83, pHe 7.4, one hour exposure, read-out: IC50 pHe 7.4",2150 ± 93 nM
same,difference in toxicity between physiological and acidic pHe,[17],no difference in toxicity
